Measurements as given in US12077608B2, “Stapled H2 pyrin peptides” (H. LEE MOFFITT CANCER CENTER AND RESEARCH INSTITUTE, INC., priority 2018, dated 2024).
Bridge positions count the residues as written; N and C are the ends. Square brackets hold non-standard residues; d marks the D form. Ends that are not written are not given here. Peptide text beside a SMILES is read from it. * marks the point of attachment. FITC = O=C1OC2(c3ccc(O)cc3Oc3cc(O)ccc32)c2ccc(NC(=S)*)cc21; S5 = C=CCCC[C@](C)(N)C(=O)O; Nle = CCCC[C@H](N)C(=O)O; βAla = NCCC(=O)O

Legend:
GST-ASC^PYD = molecular target: T1, GST-ASC^PYD (Homo sapiens, UniProt Q9ULZ3); test: KD (μM) | GST-ASC^PYD
T1 construct: human ASC (residues 1-106) was cloned into a pGEX-4T1 vector; made in house; host or cells: E. coli BL21 DE3
Excerpt: (§1) Table printed on a drawing sheet, FIG. 10
Head of the field: KD (μM) | GST-ASC^PYD
(§2) The patent's description of the figure: FIG. 10 is a table showing the results from a fluorescence anisotropy binding assay to determine the accurate binding affinities of stapled peptides fPOP1-H2 (SEQ ID NO: 2), fSAH-POP1-1 (SEQ ID NO: 1), fSAH-POP1-3 (SEQ ID NO: 3), fSAH-POP1-4 (SEQ ID NO: 4), fSAH-POP1-5 (SEQ ID NO: 5), fSAH-POP1-6 (SEQ ID NO: 6), fSAH-POP1-7 (SEQ ID NO: 7), fSAH-POP1-8 (SEQ ID NO: 8), fSAH-POP1-9 (SEQ ID NO: 9), fSAH-POP1-10 (SEQ ID NO: 10), fSAH-POP1-11 (SEQ ID NO: 11), fSAH-POP1-12 (SEQ ID NO: 12), fSAH-POP1-13 (SEQ ID NO: 13), fSAH-POP1-14 (SEQ ID NO: 14), fSAH-POP1-15 (SEQ ID NO: 15), fSAH-POP1-16 (SEQ ID NO: 16), fSAH-POP1-17 (SEQ ID NO: 17), fSAH-POP1-18 (SEQ ID NO: 18), fSAH-POP1-19 (SEQ ID NO: 19), fSAH-POP1-20 (SEQ ID NO: 20), fSAH-POP1-21 (SEQ ID NO: 21), fSAH-POP1-22 (SEQ ID NO: 22), fSAH-POP1-23 (SEQ ID NO: 23), fSAH-POP1-24 (SEQ ID NO: 24), fSAH-POP1-25 (SEQ ID NO: 25), fSAH-POP1-26 (SEQ ID NO: 26), fSAH-POP1-27 (SEQ ID NO: 27), fSAH-POP1-28 (SEQ ID NO: 28), fSAH-POP1-29 (SEQ ID NO: 29), fSAH-POP1-30 (SEQ ID NO: 30), fSAH-POP1-31 (SEQ ID NO: 31).
(§3) First copying reader's note: Second part of the same figure; in the structures S5, NL (N with lowered L) and NH2 carry lowered signs, a drawn bracket joins the two S5 residues (staple), and the SEQ ID NO column is printed outside the table frame.
Where the first naming reader finds the target: head: GST-ASC^PYD

GST-NLRP3^PYD = molecular target: T2, GST-NLRP3^PYD (Homo sapiens, UniProt Q96P20); test: KD (μM) | GST-NLRP3^PYD
T2 construct: human NLRP3 (residues 3-110) was cloned into a pET-21b vector; made in house; host or cells: E. coli BL21 DE3
Excerpt: as §1
Head of the field: KD (μM) | GST-NLRP3^PYD
as §2, §3
Where the first naming reader finds the target: head: GST-NLRP3^PYD

[1] = tested on: ASC speck formation in THP-1 ASC-GFP cells; test: ASC speck assay, live-cell imaging; format: cell-based, Human; details: for ASC speck formation remaining with inhibitor: 5 μM peptide, nigericin at 5 μM gives 38%
Procedure: ASC speck is a hallmark of inflammasome formation (Dick et al., 2016; Hoss et al., 2017) and observable by microscopy (Doyle et al., 2012; Stutz et al., 2013). THP-1 ASC-GFP cells stably expressing the ASC-GFP fusion protein (InvivoGen Catalog #: thp-ascgfp) were used to visualize the inhibitory effect of SAH-POP1-4 on ASC specks formation (Fernandes-Alnemri et al., 2007).
Experimental Procedure for ASC Speck Assay. THP1 ASC-GFP cells were seeded at 2×10^6/ml (0.7-1 mL) in RPMI1640 medium with 10% FCS in FluoroDish (FD35-100) and cultivated in the presence of 50 nM phorbol-12-myristate-13-acetate (PMA) for 24 h, then media was replaced by fresh media and incubated for 24 h. Then cells were stimulated with 200 ng/ml LPS from E. coli (sigma) for 3 h. The media was removed and replaced with serum-free medium (OptiMEM) containing DMSO (1:1,000), 20 μM inhibitors for 30 min. […] Control samples were incubated with media lacking LPS or nigericin. Then, ASC specks were tested by confocal microscopy SP8 (Leica Microsystems).
ASC speck is the hallmark of inflammasome formation and observable by microscopy. THP-1 ASC-GFP cells stably expressing the ASC-GFP fusion protein (InvivoGen Catalog #: thp-ascgfp) were used to visualize the inhibitory effect of SAH-POP1-17 on ASC specks formation (Fernandes-Alnemri et al., 2007). […] SAH-POP1-17 at 5 μM inhibited ASC speck formation to 4%, and SAH-POP1-18 at 5 μM inhibited ASC speck formation to 8%.

[2] = Circular dichroism (CD) secondary structure of the peptides; format: physicochemical; details: aqueous solution; 100 μM peptide in 10 mM potassium phosphate, 100 mM potassium fluoride buffer (pH=7.5)
Procedure: Circular dichroism (CD) was used to determine the secondary structure of the peptides. […] Hydrocarbon stapling promoted α-helix contents with SAH-POP1-4 and SAH-POP1-8 having the highest in aqueous solution.
CD spectra were recorded on an AVIV Model 215 Circular Dichroism Spectrometer. Each spectrum was collected with the wavelength between 190 to 260 nm, 0.5 nm increments, and 0.5 s averaging time using a 1-mm path length cell. The peptide concentration was 100 μM in 10 mM potassium phosphate and 100 mM potassium fluoride buffer (pH=7.5). The studied peptides were completely dissolved in this buffer. CD spectra were initially plotted as wavelength versus millidgree, the default output of the instrument. Once the precise peptide concentration was confirmed, the mean residue ellipticity [Θ] was calculated for the y-axis.

T2 sequence (Q96P20 3-110): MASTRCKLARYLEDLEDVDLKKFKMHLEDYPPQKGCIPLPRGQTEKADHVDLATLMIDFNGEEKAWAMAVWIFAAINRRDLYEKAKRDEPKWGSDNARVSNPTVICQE
T1 sequence (Q9ULZ3 1-106): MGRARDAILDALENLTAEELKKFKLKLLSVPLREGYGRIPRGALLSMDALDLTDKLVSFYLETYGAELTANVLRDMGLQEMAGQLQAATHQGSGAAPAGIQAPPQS

Row | Compound | Kd (GST-ASC^PYD) [µM] | Kd (GST-NLRP3^PYD) [µM] | other results
1 | CO[C@@H]1C[C@@H](C[C@H]2CC[C@H](C)[C@H]([C@@H](C)C(=O)O)O2)O[C@]2(O[C@](C)([C@H]3CC[C@@](C)([C@@H]4O[C@@H]([C@H]5O[C@@](O)(CO)[C@H](C)C[C@@H]5C)C[C@@H]4C)O3)C[C@H]2C)[C@@H]1C [nigericin, reference compound] |  |  | activation of ASC speck formation ([1]; nigericin at 2 μM): activated ASC speck formation; ASC speck formation activated ([1]; nigericin at 5 μM, no inhibitor): 38%
2 | POP1-H2: Reference peptide, unstapled, amino acid sequence EELKKFKMKLGTV [reference compound] |  |  | α-helical structure / α-helix contents by circular dichroism [2]: does not exhibit α-helical structure
3 | SAH-POP1-17: Stapled peptide synthesized by FIG. 11, SEQ ID NO: 44 (QXLRRXQWXLWTA; hydrocarbon staple; (2)..(2) X= S5=(S)-2-(4-pentenyl)alanineS5, the two Xs are also directly connected by a double bond; (6)..(6) X= S5=(S)-2-(4-pentenyl)alanineS5, the two Xs are also directly connected by a double bond; (9)..(9) X= NL = norleucine) |  |  | ASC speck formation remaining with inhibitor [1]: 4%
4 | SAH-POP1-18: Stapled peptide synthesized by FIG. 11, SEQ ID NO: 45 (Q[S5]LRR[S5]QWFLWTA-NH2; staple 2-6; N-terminus assumed; SMILES CC(C)C[C@H](NC(=O)[C@H](Cc1ccccc1)NC(=O)[C@H](Cc1c[nH]c2ccccc12)NC(=O)[C@H](CCC(N)=O)NC(=O)[C@]1(C)CCCC=CCCC[C@](C)(NC(=O)[C@@H](N)CCC(N)=O)C(=O)N[C@@H](CC(C)C)C(=O)N[C@@H](CCCNC(=N)N)C(=O)N[C@@H](CCCNC(=N)N)C(=O)N1)C(=O)N[C@@H](Cc1c[nH]c2ccccc12)C(=O)N[C@H](C(=O)N[C@@H](C)C(N)=O)[C@@H](C)O) |  |  | ASC speck formation remaining with inhibitor [1]: 8%

Continued, in another order:

Row | Kd (GST-ASC^PYD) [µM] | Kd (GST-NLRP3^PYD) [µM] | Compound | other results
5 | 5 ± 0.79 | 11 ± 1.1 | CCCC[C@H](NC(=O)[C@H](Cc1c[nH]c2ccccc12)NC(=O)[C@H](CCC(N)=O)NC(=O)[C@]1(C)CCCC=CCCC[C@](C)(NC(=O)[C@H](CCC(N)=O)NC(=O)CCNC(=S)Nc2ccc3c(c2)C(=O)OC32c3ccc(O)cc3Oc3cc(O)ccc32)C(=O)N[C@@H](CO)C(=O)N[C@@H](CCCNC(=N)N)C(=O)N[C@@H](CCCNC(=N)N)C(=O)N1)C(=O)N[C@@H](CCC(N)=O)C(=O)N[C@@H](Cc1c[nH]c2ccccc12)C(=O)N[C@H](C(=O)N[C@@H](C)C(N)=O)[C@@H](C)O [fSAH-POP1-26] ({FITC-βAla}-Q[S5]SRR[S5]QW[Nle]QWTA-NH2; staple 2-6) | 
6 | 3.9 ± 0.68 | 7.9 ± 1.1 | CCCC[C@H](NC(=O)[C@H](Cc1c[nH]c2ccccc12)NC(=O)[C@H](CCCCN)NC(=O)[C@]1(C)CCCC=CCCC[C@](C)(NC(=O)[C@H](CCC(N)=O)NC(=O)CCNC(=S)Nc2ccc3c(c2)C(=O)OC32c3ccc(O)cc3Oc3cc(O)ccc32)C(=O)N[C@@H](CO)C(=O)N[C@@H](CCCNC(=N)N)C(=O)N[C@@H](CCCNC(=N)N)C(=O)N1)C(=O)N[C@@H](CCC(N)=O)C(=O)N[C@@H](Cc1c[nH]c2ccccc12)C(=O)N[C@H](C(=O)N[C@@H](C)C(N)=O)[C@@H](C)O [fSAH-POP1-27] ({FITC-βAla}-Q[S5]SRR[S5]KW[Nle]QWTA-NH2; staple 2-6) | 
7 | 7.2 ± 1.1 | 7.7 ± 1.5 | CCCC[C@H](NC(=O)[C@H](Cc1c[nH]c2ccccc12)NC(=O)[C@H](CCC(N)=O)NC(=O)[C@]1(C)CCCC=CCCC[C@](C)(NC(=O)[C@H](CCC(N)=O)NC(=O)CCNC(=S)Nc2ccc3c(c2)C(=O)OC32c3ccc(O)cc3Oc3cc(O)ccc32)C(=O)N[C@@H](CC(C)C)C(=O)N[C@@H](CCCNC(=N)N)C(=O)N[C@@H](CCCNC(=N)N)C(=O)N1)C(=O)N[C@@H](CC(C)C)C(=O)NCC(=O)N[C@H](C(=O)N[C@@H](C)C(N)=O)[C@@H](C)O [fSAH-POP1-28] ({FITC-βAla}-Q[S5]LRR[S5]QW[Nle]LGTA-NH2; staple 2-6) | 
8 | 5.5 ± 0.69 | 6 ± 0.92 | CCCC[C@H](NC(=O)[C@H](Cc1c[nH]c2ccccc12)NC(=O)[C@H](CCC(N)=O)NC(=O)[C@]1(C)CCCC=CCCC[C@](C)(NC(=O)[C@H](CCC(N)=O)NC(=O)CCNC(=S)Nc2ccc3c(c2)C(=O)OC32c3ccc(O)cc3Oc3cc(O)ccc32)C(=O)N[C@@H](CC(C)C)C(=O)N[C@@H](CCCNC(=N)N)C(=O)N[C@@H](CCCNC(=N)N)C(=O)N1)C(=O)N[C@@H](CC(C)C)C(=O)N[C@@H](CC(=O)O)C(=O)N[C@H](C(=O)N[C@@H](C)C(N)=O)[C@@H](C)O [fSAH-POP1-29] ({FITC-βAla}-Q[S5]LRR[S5]QW[Nle]LDTA-NH2; staple 2-6) | 
9 | 7.5 ± 1.1 | 6.7 ± 1.2 | CCCC[C@H](NC(=O)[C@H](Cc1c[nH]c2ccccc12)NC(=O)[C@H](CCC(N)=O)NC(=O)[C@]1(C)CCCC=CCCC[C@](C)(NC(=O)[C@H](CCC(N)=O)NC(=O)CCNC(=S)Nc2ccc3c(c2)C(=O)OC32c3ccc(O)cc3Oc3cc(O)ccc32)C(=O)N[C@@H](CC(C)C)C(=O)N[C@@H](CCCNC(=N)N)C(=O)N[C@@H](CCCNC(=N)N)C(=O)N1)C(=O)N[C@@H](CC(C)C)C(=O)N[C@@H](CC(N)=O)C(=O)N[C@H](C(=O)N[C@@H](C)C(N)=O)[C@@H](C)O [fSAH-POP1-30] ({FITC-βAla}-Q[S5]LRR[S5]QW[Nle]LNTA-NH2; staple 2-6) | 
10 | 7.8 ± 1.1 | 4.7 ± 0.54 | CCCC[C@H](NC(=O)[C@H](Cc1c[nH]c2ccccc12)NC(=O)[C@H](CCC(N)=O)NC(=O)[C@]1(C)CCCC=CCCC[C@](C)(NC(=O)[C@H](CCC(N)=O)NC(=O)CCNC(=S)Nc2ccc3c(c2)C(=O)OC32c3ccc(O)cc3Oc3cc(O)ccc32)C(=O)N[C@@H](CC(C)C)C(=O)N[C@@H](CCCNC(=N)N)C(=O)N[C@@H](CCCNC(=N)N)C(=O)N1)C(=O)N[C@@H](CC(C)C)C(=O)N[C@@H](CO)C(=O)N[C@H](C(=O)N[C@@H](C)C(N)=O)[C@@H](C)O [fSAH-POP1-31] ({FITC-βAla}-Q[S5]LRR[S5]QW[Nle]LSTA-NH2; staple 2-6) | 
